According to ChEMBL document CHEMBL1681749, “Antibacterial activities of imidazolium, pyrrolidinium and piperidinium salts” (2011):

Experiments:
Format in all cases: functional
Bacillus subtilis = test: Antibacterial activity against Bacillus subtilis 168 by agar-dilution method; conditions: subsp. subtilis str. 168
Escherichia coli = test: Antibacterial activity against Escherichia coli MG1655 by agar-dilution method; conditions: K-12 substr. MG1655
Staphylococcus aureus = test: Antibacterial activity against Staphylococcus aureus subsp. aureus NBRC 15035 by agar-dilution method
Pseudomonas putida = test: Antibacterial activity against Pseudomonas putida NBRC 14164 by agar-dilution method

Row | MIC (Bacillus subtilis) | MIC (Escherichia coli) | MIC (Staphylococcus aureus) | MIC (Pseudomonas putida) | Structure (SMILES)
1 | 0.39 µg/mL | 25 µg/mL | 0.78 µg/mL | 100 µg/mL | CCCCCC#CC[n+]1ccn(CCCCCCC[Si](C)(C)C)c1.[I-]
2 | 0.39 µg/mL | 12.5 µg/mL | 0.39 µg/mL | 100 µg/mL | CCCCCC#CC[n+]1ccn(CCCCCCC[Si](C)(C)C)c1C.[I-]
3 | 0.39 µg/mL | 100 µg/mL | 0.78 µg/mL | 100 µg/mL | CCCCCC#CC[n+]1ccn(CCCCCCCCC[Si](C)(C)C)c1C.[I-]
4 | 1.56 µg/mL | > 100 µg/mL | 1.56 µg/mL | > 100 µg/mL | CCCCCC#CC[n+]1ccn(CCCCCCCCCCC[Si](C)(C)C)c1C.[I-]
5 | > 50 µg/mL | > 50 µg/mL | > 50 µg/mL | > 50 µg/mL | CCCCCC#CC[N+]1(C)CCCC1.[I-]
6 | > 50 µg/mL | > 50 µg/mL | > 50 µg/mL | > 50 µg/mL | CCCCCC#CC[N+]1(C)CCCCC1.[I-]
7 | 1.56 µg/mL | 50 µg/mL | 3.13 µg/mL | > 100 µg/mL | CCCCCCCC[n+]1ccn(CCCC[Si](C)(C)C)c1.[I-]
8 | 1.56 µg/mL | 100 µg/mL | 0.39 µg/mL | 100 µg/mL | C[Si](C)(C)CCCCn1cc[n+](-c2ccc(-c3ccccc3)cc2)c1.[I-]
9 | 0.39 µg/mL | > 100 µg/mL | 0.39 µg/mL | 100 µg/mL | C[Si](C)(C)CCCCn1cc[n+](Cc2ccc(CC[Si](C)(C)C)cc2)c1.[I-]
10 | 6.25 µg/mL | > 100 µg/mL | > 6.25 µg/mL | > 100 µg/mL | C[Si](C)(C)CCCCCCCCCn1cc[n+](Cc2ccc(CC[Si](C)(C)C)cc2)c1.[I-]
11 | 1.56 µg/mL | 3.13 µg/mL | – | – | CCCCCCCCCCCCCCCC[n+]1ccn(Cc2ccccc2)c1C.[I-]

More lines, now with the values behind:

Row | Structure (SMILES) | MIC (Bacillus subtilis) | MIC (Escherichia coli) | MIC (Staphylococcus aureus) | MIC (Pseudomonas putida)
12 | CCCCCC#CC[n+]1ccn(CCCCCCCCC)c1C.[I-] | 0.78 µg/mL | 12.5 µg/mL | 0.78 µg/mL | 50 µg/mL
13 | CCCCCC#CC[n+]1ccn(CCCCCCCCCC)c1C.[I-] | 0.78 µg/mL | 3.13 µg/mL | 0.39 µg/mL | 50 µg/mL
14 | CCCCCC#CC[n+]1ccn(CCCCCCCCCCC)c1C.[I-] | 0.39 µg/mL | 3.13 µg/mL | 0.39 µg/mL | 50 µg/mL
15 | CCCCCC#CC[n+]1ccn(CCCCCCCCCCCC)c1.[I-] | 0.39 µg/mL | 25 µg/mL | 0.39 µg/mL | 50 µg/mL
16 | CCCCCC#CC[n+]1ccn(CCCCCCCCCCCC)c1C.[I-] | 0.39 µg/mL | 6.25 µg/mL | 0.39 µg/mL | 50 µg/mL
17 | CCCCCC#CC[n+]1ccn(CCCCCCCCCCCCCC)c1C.[I-] | 0.78 µg/mL | 100 µg/mL | 0.78 µg/mL | > 100 µg/mL
18 | CCCCCC#CC[n+]1ccn(CCCCCCCCCCCCCCCC)c1C.[I-] | 1.56 µg/mL | > 100 µg/mL | 1.56 µg/mL | > 100 µg/mL
19 | CCCCCC#CC[n+]1ccn(CCCC[Si](C)(C)C)c1.[I-] | 1.56 µg/mL | 50 µg/mL | 3.13 µg/mL | 100 µg/mL
20 | CCCCCC#CC[n+]1ccn(CCCC[Si](C)(C)C)c1C.[I-] | 1.56 µg/mL | 50 µg/mL | 1.56 µg/mL | 100 µg/mL
21 | CCCCCC#CC[n+]1ccn(CCCCC[Si](C)(C)C)c1.[I-] | 0.39 µg/mL | 25 µg/mL | 0.78 µg/mL | 100 µg/mL
22 | CCCCCC#CC[n+]1ccn(CCCCC[Si](C)(C)C)c1C.[I-] | 0.39 µg/mL | 12.5 µg/mL | 0.39 µg/mL | 50 µg/mL
23 | CCCCCC#CC[n+]1ccn(CCCCCC[Si](C)(C)C)c1C.[I-] | 0.39 µg/mL | 12.5 µg/mL | 0.39 µg/mL | 50 µg/mL
24 | CCCCCC#CC[n+]1ccn(CCCCCCCCC[Si](C)(C)C)c1.[I-] | 0.39 µg/mL | 100 µg/mL | 0.78 µg/mL | > 100 µg/mL
25 | CCCCCC#CC[N+]1(CCCCC[Si](C)(C)C)CCCC1.[I-] | 1.56 µg/mL | > 50 µg/mL | 1.56 µg/mL | > 50 µg/mL
26 | CCCCCC#CC[N+]1(CCCCC[Si](C)(C)C)CCCCC1.[I-] | 1.56 µg/mL | 50 µg/mL | 1.56 µg/mL | 100 µg/mL
27 | C#CC[n+]1ccn(CCCC[Si](C)(C)C)c1.[I-] | > 100 µg/mL | > 100 µg/mL | 100 µg/mL | > 100 µg/mL
28 | CCCCCc1ccc(-[n+]2ccn(CCCC[Si](C)(C)C)c2)cc1.[I-] | 0.39 µg/mL | 50 µg/mL | 0.39 µg/mL | 100 µg/mL
29 | C[Si](C)(C)CCCCCn1cc[n+](Cc2ccc(CC[Si](C)(C)C)cc2)c1.[I-] | 0.78 µg/mL | > 100 µg/mL | 0.78 µg/mL | > 100 µg/mL
30 | C[Si](C)(C)CCCCCCn1cc[n+](Cc2ccc(CC[Si](C)(C)C)cc2)c1.[I-] | 1.56 µg/mL | > 100 µg/mL | 1.56 µg/mL | > 100 µg/mL
31 | C[Si](C)(C)CCCCCCCn1cc[n+](Cc2ccc(CC[Si](C)(C)C)cc2)c1.[I-] | 1.56 µg/mL | > 100 µg/mL | 1.56 µg/mL | > 100 µg/mL
